Activity calls are given as the source filed them.
Assays:
Caspase-6 = Caspase-6 (Homo sapiens, UniProt P55212); test: inhibition of CASP6 peptide cleavage – biochemical, VEID-R110 fluorescence, cherry-pick, dose response (AID 720632)
Caspase-7 = Caspase-7 (Homo sapiens, UniProt P55210); test: caspase-7 enzyme inhibition, selectivity check – biochemical, DEVD-R110 fluorescence, cherry-pick, selectivity assay for caspase-6 inhibitor project, dose response (AID 743295); format: functional
Caspase-8 = Caspase-8 (Homo sapiens, UniProt Q14790); test: inhibitors of purified CASP8 protease – biochemical, Z-IETD-R110 fluorescence, cherry-picked samples, selectivity assay for caspase-6 inhibitor project, dose response (AID 743294)
Protein Tat = Protein Tat (Human immunodeficiency virus type 1 group M subtype B (isolate HXB2)(HIV-1), UniProt P04608); format: functional;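 also: tat binding to TAR RNA read out by fluorescence polarization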
[1] = viability loss in THP-1 monocytes – THP-1 cells, cytotoxicity control for Vif-APOBEC3G degradation inhibitor project, dose response (AID 1117359); format: functional; conditions: THP-1
BJ [2] = test: BJ-TERT fibroblast viability loss – cell-based, RAS-independent, luminescence, dose response (AID 1933); format: functional; conditions: Homo sapiens
cells [3] = format: functional, cell-based
BJ [4] = test: cells; format: functional, cell-based; conditions: Homo sapiens
[5] = target: Luciferin 4-monooxygenase (Photinus pyralis, UniProt P08659); test: inhibition of purified Photinus pyralis luciferase – biochemical, luminescence, dose response (AID 1891)
[6] = Luminescence Cell-Based Dose Confirmation HTS to Identify Inhibitors of Platelet Dense Granule Release. [Related pubchem assays: 1663 (Primary HTS), 1678 (Summary of Project)]; format: functional
[7] = Trypanosoma cruzi growth suppression in host cells – NIH3T3 host cells, beta-gal luminescence, confirmation (AID 2044); format: functional, cell-based;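 also: intracellular parasites grown in NIH/3T3 mouse fibroblasts as host cells; luminescent beta-galactosidase reporter signal from transgenic T. cruzi replicating inside host cells; inhibitors lower the luminescence signal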
cells [8] = format: functional, cell-based; remark: listed apart in the source
[9] = NIH3T3 cell viability loss – ATP luminescence, mouse fibroblasts, counter-screen, dose response (AID 2010); format: functional, cell-based;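 also: cells exposed to compound for about 90 hours before reading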
BJ [10] = test: BJ-TERT-LT-ST fibroblast viability loss – cell-based, RAS-independent, luminescence, dose response (AID 1935); format: functional; conditions: Homo sapiens;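 also: BJ fibroblasts immortalized with TERT plus LT and ST oncogenes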
[11] = DRD fibroblast viability loss – cell-based, non-viral oncogenic, luminescence, dose response (AID 1934); format: functional; conditions: Homo sapiens
Caspase-3 = target: T1, Caspase-3 (Homo sapiens, UniProt P42574); format: functional;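 also: Dose-response selectivity test against caspase-3 for candidate inhibitors of sentrin-specific proteases (SENPs)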
T1 sequence (P42574 whole entry): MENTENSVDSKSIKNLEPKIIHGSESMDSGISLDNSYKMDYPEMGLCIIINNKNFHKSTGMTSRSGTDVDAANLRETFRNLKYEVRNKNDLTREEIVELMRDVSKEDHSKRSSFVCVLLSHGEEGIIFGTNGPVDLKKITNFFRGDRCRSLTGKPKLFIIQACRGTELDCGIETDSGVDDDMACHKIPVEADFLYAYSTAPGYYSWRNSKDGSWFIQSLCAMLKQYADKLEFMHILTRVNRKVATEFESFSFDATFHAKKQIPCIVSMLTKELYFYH

[12] = target: T2, Sentrin-specific protease 7 (Homo sapiens, UniProt Q9BQF6); format: functional;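 also: Luminescence-based dose-response confirmation of ultra-high-throughput screening hits, measuring inhibition of SENP7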
T2 sequence (Q9BQF6 whole entry): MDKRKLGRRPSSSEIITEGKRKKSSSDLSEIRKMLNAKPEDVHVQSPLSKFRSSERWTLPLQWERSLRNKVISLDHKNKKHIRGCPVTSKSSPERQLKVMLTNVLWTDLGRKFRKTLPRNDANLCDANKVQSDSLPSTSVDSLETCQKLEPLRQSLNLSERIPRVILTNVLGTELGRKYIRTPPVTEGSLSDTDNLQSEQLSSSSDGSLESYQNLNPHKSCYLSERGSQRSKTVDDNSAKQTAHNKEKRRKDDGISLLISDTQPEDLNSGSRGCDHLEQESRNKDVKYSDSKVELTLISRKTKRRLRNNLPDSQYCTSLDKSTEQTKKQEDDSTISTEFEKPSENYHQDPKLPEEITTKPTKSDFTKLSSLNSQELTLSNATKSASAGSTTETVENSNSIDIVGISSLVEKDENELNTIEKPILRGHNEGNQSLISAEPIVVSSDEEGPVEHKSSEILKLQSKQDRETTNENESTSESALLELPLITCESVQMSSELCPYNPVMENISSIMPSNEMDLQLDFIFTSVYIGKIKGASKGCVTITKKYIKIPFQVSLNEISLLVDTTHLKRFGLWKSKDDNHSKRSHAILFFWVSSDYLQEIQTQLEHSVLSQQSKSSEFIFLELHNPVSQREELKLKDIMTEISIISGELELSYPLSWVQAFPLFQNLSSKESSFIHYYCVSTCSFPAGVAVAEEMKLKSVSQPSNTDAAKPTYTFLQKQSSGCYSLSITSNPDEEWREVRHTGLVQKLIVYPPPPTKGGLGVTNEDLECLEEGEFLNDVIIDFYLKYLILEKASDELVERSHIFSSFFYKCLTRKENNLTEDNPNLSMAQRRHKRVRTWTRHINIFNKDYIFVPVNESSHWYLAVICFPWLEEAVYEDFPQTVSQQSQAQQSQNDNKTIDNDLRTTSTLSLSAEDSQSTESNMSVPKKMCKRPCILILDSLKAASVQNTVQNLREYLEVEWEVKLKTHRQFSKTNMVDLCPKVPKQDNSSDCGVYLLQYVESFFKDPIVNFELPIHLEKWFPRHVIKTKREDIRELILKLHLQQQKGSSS

[13] = target: T3, Sentrin-specific protease 6 (Homo sapiens, UniProt Q9GZR1); format: functional;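 also: Luminescence-based dose-response confirmatory assay of SENP6 inhibition, following up an ultra-high-throughput screen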
T3 sequence (Q9GZR1 whole entry): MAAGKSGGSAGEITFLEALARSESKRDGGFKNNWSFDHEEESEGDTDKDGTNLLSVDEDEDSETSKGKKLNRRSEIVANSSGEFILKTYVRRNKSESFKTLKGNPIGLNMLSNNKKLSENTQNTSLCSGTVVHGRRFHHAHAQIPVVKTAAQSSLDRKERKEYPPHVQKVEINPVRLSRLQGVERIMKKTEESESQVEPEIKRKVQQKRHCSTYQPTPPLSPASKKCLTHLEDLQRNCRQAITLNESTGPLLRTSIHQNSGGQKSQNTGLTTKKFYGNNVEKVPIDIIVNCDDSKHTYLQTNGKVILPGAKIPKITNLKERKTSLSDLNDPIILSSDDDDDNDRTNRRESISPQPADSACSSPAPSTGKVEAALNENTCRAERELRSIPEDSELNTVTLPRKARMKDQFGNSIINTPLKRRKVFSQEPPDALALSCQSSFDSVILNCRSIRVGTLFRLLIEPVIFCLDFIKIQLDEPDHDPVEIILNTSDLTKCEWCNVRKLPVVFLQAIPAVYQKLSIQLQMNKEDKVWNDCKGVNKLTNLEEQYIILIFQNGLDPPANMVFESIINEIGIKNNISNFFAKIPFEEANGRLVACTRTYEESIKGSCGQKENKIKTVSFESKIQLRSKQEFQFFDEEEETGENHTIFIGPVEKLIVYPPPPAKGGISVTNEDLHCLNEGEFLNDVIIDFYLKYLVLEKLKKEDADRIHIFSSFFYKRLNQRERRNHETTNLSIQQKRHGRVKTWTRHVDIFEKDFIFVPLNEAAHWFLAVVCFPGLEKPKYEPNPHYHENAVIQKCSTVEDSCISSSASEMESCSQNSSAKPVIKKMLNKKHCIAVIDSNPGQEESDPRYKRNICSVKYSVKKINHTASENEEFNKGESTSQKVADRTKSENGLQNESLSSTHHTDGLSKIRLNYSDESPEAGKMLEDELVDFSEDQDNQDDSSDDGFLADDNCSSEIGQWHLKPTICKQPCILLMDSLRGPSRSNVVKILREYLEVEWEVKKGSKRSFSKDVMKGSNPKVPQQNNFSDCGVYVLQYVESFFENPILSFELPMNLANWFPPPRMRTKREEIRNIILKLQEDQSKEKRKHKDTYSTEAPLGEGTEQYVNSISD

[14] = target: T4, Sentrin-specific protease 8 (Homo sapiens, UniProt Q96LD8); format: functional;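 also: luminescence read-out of SENP8 inhibition, dose-response confirmation following an ultra-high-throughput screen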
T4 sequence (Q96LD8 whole entry): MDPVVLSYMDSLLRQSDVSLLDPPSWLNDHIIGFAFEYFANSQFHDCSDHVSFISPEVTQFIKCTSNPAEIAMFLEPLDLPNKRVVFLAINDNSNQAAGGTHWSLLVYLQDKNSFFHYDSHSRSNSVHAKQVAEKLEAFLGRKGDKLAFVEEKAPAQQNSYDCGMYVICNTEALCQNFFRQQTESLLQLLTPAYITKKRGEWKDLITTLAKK

INS1 = test: INS-1E survival protection against cytokine death – cell-based, luminescence, retest, dose response (AID 449756); format: functional; conditions: Rattus norvegicus;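 also: cell death triggered by IL-1 beta plus TNF-alpha plus IFN-gamma mixture; protective hits raise ATP signal compared with cytokine alone wells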
[15] = viability loss in HepG2 hepatoma cells – cell-based, ATP luminescence, cherry-pick, activator set 2, cytotoxicity control, dose response (AID 1053143); format: functional
[16] = tested on: Streptococcus sp. 'group A'; test: Streptococcus pyogenes SK(-)GAS viability under kanamycin – luminescence, BacTiterGlo, confirmation, counter-screen for streptokinase expression inhibitor project, dose response (AID 1900); format: functional, organism-based
[17] = target: T5, Heat shock factor protein 1 (Mus musculus, UniProt P38532); test: decrease of HSF1-responsive luciferase luminescence – cell-based, NIH3T3, dose retest, confirmation (AID 2382); format: functional;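 also: NIH3T3 fibroblasts with HSF1-driven luciferase reporter stressed by proteasome inhibitor MG132; luminescence from HSF1-driven luciferase expression after 8 hours of MG132 stress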
T5 sequence (P38532 whole entry): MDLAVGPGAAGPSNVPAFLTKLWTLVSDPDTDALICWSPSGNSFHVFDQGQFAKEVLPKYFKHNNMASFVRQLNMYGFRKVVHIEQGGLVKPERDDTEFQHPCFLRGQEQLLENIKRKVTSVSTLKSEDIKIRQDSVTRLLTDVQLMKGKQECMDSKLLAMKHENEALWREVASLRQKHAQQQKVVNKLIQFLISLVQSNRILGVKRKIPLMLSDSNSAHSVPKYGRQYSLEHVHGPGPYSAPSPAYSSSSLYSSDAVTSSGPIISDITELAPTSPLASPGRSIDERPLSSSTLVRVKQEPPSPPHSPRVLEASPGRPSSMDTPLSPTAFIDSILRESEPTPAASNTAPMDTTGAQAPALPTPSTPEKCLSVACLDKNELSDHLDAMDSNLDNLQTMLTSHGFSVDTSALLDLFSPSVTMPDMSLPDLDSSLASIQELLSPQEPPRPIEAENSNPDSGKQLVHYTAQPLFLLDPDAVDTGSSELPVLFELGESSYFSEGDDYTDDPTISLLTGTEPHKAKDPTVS

Streptococcus = test: GAS UMAA2166 growth inhibition – luminescence, BacTiterGlo, counter-screen for streptokinase expression inhibitor project, dose response (AID 1915); format: functional, organism-based;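 also: potency for reduction of bacterial viability or growth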
[18] = Luminescence Cell-Based Dose Retest to Confirm Inhibitors of Cancer Stem Cells. [Related pubchem assays (depositor defined):AID2717, AID2721]; format: functional, Homo sapiens; conditions: Homo sapiens
[19] = reduction of Shn3 3'UTR-driven luciferase in osteoblasts – cell-based, Clone20 osteoblasts, firefly luciferase, cherry-picked, dose response (AID 624132); format: functional;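 also: firefly luciferase luminescence from reporter carrying the Shn3 3'UTR in osteoblasts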
[20] = Shn3 3'UTR reporter signal decrease – cell-based, Clone20 osteoblasts, firefly luciferase, cherry-pick, set 2, Schnurri-3 inhibitor project, dose response (AID 720490); format: functional;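 also: actives lower the luminescence signal as inhibitors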
[21] = EF1alpha-driven Renilla reporter with control 3'UTR suppression – Clone20-Shn3RL cells, dual-Glo, cherry-pick, set 2, counter-screen for Shn3 3'UTR targeting project, dose response (AID 720724); format: functional, cell-based; conditions: Dual-Go Shn3RL

Caspase-7, sequence (P55210 24-198 limits assumed): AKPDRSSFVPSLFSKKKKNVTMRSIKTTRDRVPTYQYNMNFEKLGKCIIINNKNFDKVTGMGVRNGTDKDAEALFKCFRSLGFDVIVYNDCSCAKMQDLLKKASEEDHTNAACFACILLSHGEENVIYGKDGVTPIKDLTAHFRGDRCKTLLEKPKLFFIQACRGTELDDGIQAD
Caspase-7, sequence (P55210 207-303 limits assumed): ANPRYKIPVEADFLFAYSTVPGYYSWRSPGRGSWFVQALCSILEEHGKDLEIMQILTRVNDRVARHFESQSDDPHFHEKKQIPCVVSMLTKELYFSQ
Caspase-8, sequence (Q14790 217-374 limits assumed): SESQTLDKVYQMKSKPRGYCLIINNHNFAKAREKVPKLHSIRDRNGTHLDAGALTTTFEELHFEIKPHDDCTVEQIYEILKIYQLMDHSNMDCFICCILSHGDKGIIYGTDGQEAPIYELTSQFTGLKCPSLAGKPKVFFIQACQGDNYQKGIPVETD
Caspase-8, sequence (Q14790 385-479 limits assumed): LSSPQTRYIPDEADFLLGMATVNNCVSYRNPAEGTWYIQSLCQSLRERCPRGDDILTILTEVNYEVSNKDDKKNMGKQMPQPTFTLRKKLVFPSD
Caspase-6, sequence (P55212 24-179 limits assumed): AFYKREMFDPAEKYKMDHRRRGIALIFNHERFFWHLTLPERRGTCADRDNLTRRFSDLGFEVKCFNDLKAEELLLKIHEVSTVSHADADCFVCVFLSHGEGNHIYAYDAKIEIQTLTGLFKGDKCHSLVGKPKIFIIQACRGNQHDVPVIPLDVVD
Caspase-6, sequence (P55212 194-293 limits assumed): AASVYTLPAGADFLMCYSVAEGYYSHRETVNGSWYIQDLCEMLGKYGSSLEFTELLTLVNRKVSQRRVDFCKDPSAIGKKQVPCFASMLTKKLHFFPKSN
Protein Tat, sequence (P04608 whole entry): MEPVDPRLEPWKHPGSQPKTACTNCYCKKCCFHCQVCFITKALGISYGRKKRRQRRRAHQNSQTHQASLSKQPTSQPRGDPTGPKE
Luciferin 4-monooxygenase, sequence (P08659 whole entry): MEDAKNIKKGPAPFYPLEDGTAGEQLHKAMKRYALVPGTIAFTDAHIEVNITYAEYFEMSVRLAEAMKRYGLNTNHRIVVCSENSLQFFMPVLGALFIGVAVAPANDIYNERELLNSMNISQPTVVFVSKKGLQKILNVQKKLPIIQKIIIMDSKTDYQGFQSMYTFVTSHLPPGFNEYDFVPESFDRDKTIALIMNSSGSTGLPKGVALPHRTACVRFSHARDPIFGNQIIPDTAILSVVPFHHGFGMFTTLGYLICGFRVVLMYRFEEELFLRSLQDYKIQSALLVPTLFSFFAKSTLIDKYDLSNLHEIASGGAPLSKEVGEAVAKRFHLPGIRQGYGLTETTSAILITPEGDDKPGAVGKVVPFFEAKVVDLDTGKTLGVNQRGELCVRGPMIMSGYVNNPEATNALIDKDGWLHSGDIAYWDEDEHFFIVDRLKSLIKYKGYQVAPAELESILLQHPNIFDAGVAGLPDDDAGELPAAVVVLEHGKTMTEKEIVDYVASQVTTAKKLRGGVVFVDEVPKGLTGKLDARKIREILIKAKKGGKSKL

For `O=C(c1cccc(-n2cccc2)c1)N1CCN(S(=O)(=O)c2ccccc2)CC1`, the AC50 (Caspase-6) was 0.433 µM (active), the AC50 (Caspase-7) was > 70 µM (inactive) and the AC50 (Caspase-8) was 28.1 µM (active). The IC50 (Protein Tat) was > 100 µM (active) and the CC50 [1] was > 40 µM (active).
With `CCN(CC)c1ccc(/C=N/NC(=O)c2ccoc2C)c(O)c1` the EC50 (BJ [2]) was 3.02 µM (active), the EC50 (cells [3]) was 51.7 µM (active) and the EC50 (BJ [4]) was 6.42 µM (active). The EC50 [5] was 0.785 µM (active), the EC50 [6] was 2.06 µM (active) and the EC50 [7] was 0.83 µM (active). The EC50 (cells [8]) was 7.38 µM (active), the EC50 [9] was 3.59 µM (active) and the EC50 (BJ [10]) was 15.6 µM (active). For the same compound, the EC50 [11] was 6.96 µM (active), the IC50 (Caspase-3) was 0.942 µM (active) and the IC50 [12] was 0.757 µM (active). The IC50 [13] was 0.849 µM (active), the IC50 [14] was 1.33 µM (active) and the AC50 (INS1) was 0.622 µM (active). The AC50 [15] was 9.01 µM (active).
In the case of `COc1c(CC=C(C)C)cc(C2CC(=O)c3c(O)cc(O)cc3O2)cc1CC=C(C)C` (centres undefined), the EC50 [16] is reported as 2.47 µM (active), the EC50 [17] is reported as 11.8 µM (active) and the EC50 (Streptococcus) is reported as 3.2 µM (active). The AC50 [18] was 3.04 µM (active), the AC50 (INS1) was 4.52 µM (active) and the AC50 [19] was 5.42 µM (active). The AC50 [20] was 2.82 µM (active) and the AC50 [21] was 24.6 µM (active).

From ChEMBL document CHEMBL1201862, “PubChem BioAssay data set” (2004)
